Values joined by “and” are separate entries in the source; they are usually repeats but may differ in a detail not shown here. Identical values can stand only once.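 48-hour exposure; five concentrations; linearly interpolated endpoints. GI50 = concentration required for 50% inhibition of growth. TGI: total growth inhibition.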
Assays:
Test in all cases: NCI-60 cell line screen, 48 h
MDA-N = test system: MDA-N
SNB-78 CNS = test system: SNB-78 CNS
DMS 273 small cell lung = test system: DMS 273 small cell lung
KM20L2 colon = test system: KM20L2 colon
M19-MEL melanoma = test system: M19-MEL melanoma
DMS 114 small cell lung = test system: DMS 114 small cell lung
HOP-18 NSCLC = test system: HOP-18 NSCLC
RXF-631 renal = test system: RXF-631 renal
XF 498 CNS = test system: XF 498 CNS

Row | Compound | TGI (MDA-N) | TGI (SNB-78 CNS) [µM] | TGI (DMS 273 small cell lung) [µM] | TGI (KM20L2 colon) [µM] | TGI (M19-MEL melanoma) [µM] | TGI (DMS 114 small cell lung) [µM] | TGI (HOP-18 NSCLC) [µM] | TGI (XF 498 CNS) [µM] | other results
1 | O=c1c2c([nH]c3nccn13)CCC2 | > 10 µM |  |  |  |  |  |  |  | 
2 | C=CCn1c(=S)sc2c(C(=O)OCC)c3c(C)cc(C)cn3c2c1=O |  | > 100 | > 100 | > 100 | > 100 |  |  |  | 
3 | Cc1ccc(S(=O)(=O)N/N=C(\c2nc3ccc(Cl)cc3[nH]c2=O)C(O)c2ccco2)cc1 (centres undefined) |  |  | > 100 | > 100 | > 100 | > 100 | > 100 |  | 
4 | O=c1cc(-c2ccccn2)[nH]c2cccc(F)c12 |  | > 100 |  | > 100 | > 100 | > 100 | > 100 |  | TGI (RXF-631 renal): > 100 µM
5 | O=[N+]([O-])/C=C/c1c(Cl)cccc1Cl | 6.85 µM |  |  |  |  |  |  |  | 
6 | COc1ccc(-c2c(C)c(C(=O)O)nc(-c3ccc4c(O)c(OC)c5c(c4n3)=NC(C)(C)N=5)c2N)c(O)c1OC | 39.9 µM |  |  |  |  |  |  |  | 
7 | CCCn1c(SCCSc2c3ccccc3c(-c3nc(F)nc(F)n3)n2CCC)c2ccccc2c1-c1nc(F)nc(F)n1 |  | > 100 | > 100 | > 100 |  |  | > 100 |  | 
8 | Cc1c(C(=O)C/C(=N/NC(=O)c2ccccc2)C(=O)Nc2ccc(Cl)cc2)[n+](=O)c2ccccc2n1[O-] |  | > 100 | > 100 |  |  | > 100 | > 100 | > 100 | TGI (RXF-631 renal): > 100 µM
9 | O=C(/C=C(\O)C(=O)O)/C=C(\O)c1ccccc1 |  | > 100 | > 100 | > 100 | > 100 | > 100 | > 100 | > 100 | GI50 (DMS 114 small cell lung): > 100 µM; GI50 (SNB-78 CNS): > 1 µM; GI50 (DMS 273 small cell lung): > 1 µM; GI50 (KM20L2 colon): > 1 µM; GI50 (M19-MEL melanoma): > 1 µM; GI50 (XF 498 CNS): > 1 µM
10 | Cc1cc2c(c(C(N)=O)c1C)-c1cccc(F)c1C2=O |  | > 100 | > 100 | > 100 | > 100 | > 100 |  | > 100 | 
11 | N#C/C(=C1\SCC(=O)N1c1ccccc1)c1nc2ccccc2[nH]1 |  | > 100 | > 100 | > 100 | > 100 | > 100 |  | > 100 | 
12 | CCOC(=O)NC(=O)c1cn(CCN2CCN(C(=O)CNC(=O)CNC(=O)Cn3cc(C(=O)NC(=O)OCC)c(=O)[nH]c3=O)CC2)c(=O)[nH]c1=O |  | > 100 | > 100 | > 100 | > 100 | > 100 | > 100 | > 100 | 
13 | COC(=O)CCC(NC(=S)N/N=C(\C)c1ccc[nH]1)C(=O)OC (centres undefined) |  | > 100 | > 100 | > 100 | > 100 | > 100 | > 100 | > 100 | 
14 | [N-]=[N+]=NC(c1cn(C2CC(O)C(CO)O2)c(=O)[nH]c1=O)C(Cl)Br (centres undefined) |  | > 100 | > 100 | > 100 | > 100 | > 100 | > 100 |  | 
15 | O=C1NC(N/N=C\C(O)C(O)C(O)C(O)CO)=N/C1=C/c1ccccc1 (centres undefined) | > 100 µM and 31.6 µM |  |  |  |  |  |  |  | GI50 (MDA-N): 89 µM and 15.7 µM and > 100 µM
16 | C=CC(=O)N1C/C(=C\c2ccc(Cl)c(Cl)c2)C(=O)/C(=C/c2ccc(Cl)c(Cl)c2)C1 |  | 0.838 | 0.315 | 0.545 | 0.4 | 0.309 | 1.38 |  | TGI (RXF-631 renal): 1.89 µM
17 | CC(C)C1CO[C@]2(C)CCC(=O)N12 (some centres undefined) |  |  |  | > 100 | > 100 | > 100 | > 100 | > 100 | TGI (RXF-631 renal): > 100 µM
18 | O=S(=O)(NC1CCCCC1)c1ccc2c(c1)OCCOCCOCCOCCO2 | > 100 µM |  |  |  |  |  |  |  | 
19 | O=C(O)C(Cc1cnc[nH]1)N1C(=O)c2ccccc2C1=O (centres undefined) | > 100 µM |  |  |  |  |  |  |  | 
20 | C[N+]1=c2c3cccc4cccc(c(=O)n2CC1)c43 |  | 54.7 | 28.8 | 43.3 | 31.6 | 29.2 | 54.1 |  | TGI (RXF-631 renal): > 100 µM

Row | Compound | TGI (MDA-N) | TGI (SNB-78 CNS) [µM] | TGI (DMS 273 small cell lung) [µM] | TGI (KM20L2 colon) [µM] | TGI (M19-MEL melanoma) [µM] | TGI (DMS 114 small cell lung) [µM] | TGI (HOP-18 NSCLC) [µM] | TGI (XF 498 CNS) [µM] | other results
21 | O=C1C2C(C(=O)N1c1ccccc1)C1c3ccccc3C2C2C(=O)N(c3ccccc3)C(=O)C21 (centres undefined) |  |  | 53.2 | 42.8 | > 100 | 27 | > 100 |  | 
22 | CC(C)/C=C1\CCC(CN2CCOCC2)C1=O (centres undefined) |  | 37.4 |  | 38.2 | > 57.2 |  | 31.8 | 33.4 | 
23 | CCC[CH2][Sn]([CH2]CCC)([O]C(=O)c1cc(OC)c(OC)cc1OC)[O][Sn]([CH2]CCC)([CH2]CCC)[O]C(=O)c1cc(OC)c(OC)cc1OC |  | 1.51 | 1.76 | 2.56 | 1.7 | 1.26 | 3.16 | 0.508 | GI50 (RXF-631 renal): 0.158 µM; TGI (RXF-631 renal): 0.365 µM; GI50 (DMS 114 small cell lung): 0.314 µM; GI50 (HOP-18 NSCLC): 1.78 µM; GI50 (SNB-78 CNS): 0.402 µM; GI50 (DMS 273 small cell lung): 0.762 µM; GI50 (KM20L2 colon): 1.21 µM; GI50 (M19-MEL melanoma): 0.347 µM; GI50 (XF 498 CNS): 0.196 µM
24 | CCOC(=O)N1C/C(=C\c2ccccc2)C(=O)/C(=C/c2ccccc2)C1 | 3.62 µM | > 81.2 | 6.44 | 22.4 | 3.22 | 14.5 | > 67.5 | 26.6 | 
25 | C/C(CC(=O)NCCc1ccccc1)=N\NS(=O)(=O)c1ccc(C)cc1 |  | > 100 | > 100 | > 100 | > 100 | > 100 |  | > 100 | TGI (RXF-631 renal): > 100 µM
26 | OC1(c2ccccc2)C2CC=CC2C1(c1ccccc1)c1ccccc1 (centres undefined) | > 100 µM |  |  |  |  |  |  |  | 
27 | CN(C)Cc1ccc(-c2cc3onc(-c4ccccc4)c3c(=O)n2C)cc1 | 44.5 µM |  |  |  |  |  |  |  | 
28 | CN1C(=O)c2ccc3ccccc3c2C1=O | > 100 µM |  |  |  |  |  |  |  | 
29 | COC1C(OC(=O)c2ccc(C)[nH]2)C(O)C(Oc2ccc3c(O)c(NC(=O)c4c[nH]c(C(=O)Nc5c(O)c6ccc(OC7OC(C)(C)C(OC)C(OC(=O)c8ccc(C)[nH]8)C7O)c(C)c6oc5=O)c4C)c(=O)oc3c2C)OC1(C)C (centres undefined) |  | 7.37 | 12.2 | 15.6 |  | 6.75 | 3.37 |  | 
30 | O=[N+]([O-])c1cccc(/C=N/NC2=CS(=O)(=O)C=C2)c1 | > 100 µM |  |  |  |  |  |  |  | 
31 | C/C(CC(=O)Nc1cccc(Cl)c1C)=N\NC(N)=S |  | > 100 |  | > 100 | > 100 |  |  | > 100 | TGI (RXF-631 renal): > 100 µM
32 | COc1ccccc1N=Nc1c(-c2ccccc2)nn(C(=O)CC(=O)Nc2cccc(C)c2)c1-c1ccccc1 |  | > 100 | > 100 | 88.1 | > 100 | 77.1 | > 100 | 61.5 | TGI (RXF-631 renal): > 100 µM
33 | CCO/C=C1\N=C(c2ccc(Cl)c(Cl)c2)OC1=O |  | > 100 | > 100 | > 100 | > 100 | > 100 |  | > 100 | 
34 | CC(C)N(C(=O)c1cccc(C(=O)N(C(C)C)C(C)C)c1)C(C)C |  | > 100 | > 100 | > 100 | > 100 | > 100 | > 100 | > 100 | TGI (RXF-631 renal): > 100 µM
35 | C#CC1(O)CCC2C3CCc4cc(Oc5nc(F)nc(-c6c7ccccc7c7n6CCS7)n5)ccc4C3CC[C@@]21C (some centres undefined) |  |  | 87.8 | > 100 | > 100 | 44.7 |  | > 100 | 
36 | C=C1CC(CC)(CCN2C(=O)c3ccccc3C2=O)OC1=O (centres undefined) |  |  | 24.6 | 46.1 |  | 43 |  | 27.1 | 
37 | C[C@H]1[C@H](C)N1CC(O)Cn1ccnc1[N+](=O)[O-] (some centres undefined) | > 100 µM |  |  |  |  |  |  |  | 
38 | COc1cc(CNc2nc3c(N)cc(C(F)(F)F)cc3nc2-c2ccccc2)cc(OC)c1OC |  |  | > 100 | > 100 | > 100 | > 100 | > 100 | 86.2 | TGI (RXF-631 renal): > 100 µM; GI50 (HOP-18 NSCLC): > 100 µM
39 | COC(C)(C)[C@@H](O)[C@H](O)C[C@H](C)C1=C2CC[C@@H]3[C@@]4(C)CC[C@@H](OC(C)=O)C(C)(C)[C@@H]4C[C@@H](OC4OC(COC(C)=O)C(O)C(O)C4O)[C@@]3(C)[C@]2(C)CC1 (some centres undefined) | 24.6 µM |  |  |  |  |  |  |  | GI50 (MDA-N): 11.8 µM
